Results from patent US9393221B2, “Methods and compounds for reducing intracellular lipid storage” (THE GENERAL HOSPITAL CORPORATION, priority 2011, dated 2016).
Where a name gives a salt, the structure may show the parent alone. Read-outs that look alike come from different tables or passages of the source.

System: ATGL-KO iPSCs
Assay: High throughput iPSC chemical screening, Oil Red O (ORO) lipid accumulation; also: test concentration or dose not given here
Format: cell-based, mouse
[1] = normalized ORO level vs DMSO-treated cells, compound present during 7 days differentiation, 96-well, negative = decrease in lipid accumulation

Compound | Z-score [1] | Z-score
COc1ccc2c3c1O[C@H]1C[C@@H](O)C=C[C@@]31CCN(C)C2 [Galanthamine hydrobromide] | −0.7931 | 
CC[C@@]1(O)C(=O)OCc2c1cc1n(c2=O)Cc2cc3ccccc3nc2-1 [Camptothecine (S,+)] | 21.8871 | 
Cc1ccccc1C(OCCN(C)C)c1ccccc1 (stereo not drawn) [Orphenadrine hydrochloride] | −0.3046 | 
Oc1cc(O)c2c(c1)O[C@H](c1ccc(O)c(O)c1)[C@H](O)C2 [Epicatechin-(−)] | 0.9251 | 
O=C(Nc1ccc([N+](=O)[O-])cc1Cl)c1cc(Cl)ccc1O [Niclosamide] | 25.4633 | 
CN(C)/N=N/c1[nH]cnc1C(N)=O [Dacarbazine] | −0.3016 | 
CCC1=C(C)CN(C(=O)NCCc2ccc(S(=O)(=O)NC(=O)N[C@H]3CC[C@H](C)CC3)cc2)C1=O [Glimepiride] | 0.1043 | 
CNCCc1ccccn1.CS(=O)(=O)O.CS(=O)(=O)O [Betahistine mesylate] | 1.556 | 
c1ccc2c(c1)CCCC2C1=NCCN1 (stereo not drawn) [Tetrahydrozoline hydrochloride] | −0.9102 | 
COc1ncnc(NS(=O)(=O)c2ccc(N)cc2)c1OC [Sulfadoxine] | −0.1202 | 
OCCOCCN1CCN(C(c2ccccc2)c2ccc(Cl)cc2)CC1 (stereo not drawn) [Hydroxyzine dihydrochloride] | −0.9071 | 
CC(=O)OCC(=O)[C@@]1(O)[C@H](C)C[C@H]2[C@@H]3CCC4=CC(=O)C=C[C@]4(C)[C@@]3(F)[C@@H](O)C[C@@]21C [Dexamethasone acetate] | −1.3076 | 
CC(C)NC[C@@H](O)COc1cccc2ccccc12.Cl [(R)-Propranolol hydrochloride] | −0.4494 | 
CN1CCCCC1CCN1c2ccccc2Sc2ccc([S+](C)[O-])cc21 (stereo not drawn) [Mesoridazine besylate] | −0.5525 | 
O=C1OC(CN2CCOCC2)CN1/N=C/c1ccc([N+](=O)[O-])o1 (stereo not drawn) [Furaltadone hydrochloride] | −0.4516 | 
Cc1ccc(/C(=C\CN2CCCC2)c2ccccn2)cc1 [Triprolidine hydrochloride] | −1.0644 | 
CC(C)NCC(O)COc1cccc2ccccc12 (stereo not drawn) [Propranolol hydrochloride] | 2.05 | 
Nc1c2c(nc3ccccc13)CCCC2 [Tacrine hydrochloride hydrate] | −2.143 | 
CN(C)CCCC1(c2ccc(F)cc2)OCc2cc(C#N)ccc21 (stereo not drawn) [Citalopram Hydrobromide] | 0.03052 | 
COc1ccc2c(c1)c(CC(=O)OCC(=O)O)c(C)n2C(=O)c1ccc(Cl)cc1 [Acemetacin] | −0.9005 | 
COc1ccc(CC2c3cc(OC)c(OC)cc3CC[N+]2(C)CCC(=O)OCCCCCOC(=O)CC[N+]2(C)CCc3cc(OC)c(OC)cc3C2Cc2ccc(OC)c(OC)c2)cc1OC (stereo not drawn) [Atracurium besylate] | 1.182 | 
CC(C)(C)NC[C@@H](O)COc1cccc2c1CCCC2=O.Cl [(+)-Levobunolol hydrochloride] | −0.1813 | 

Compound | Z-score [1] | Z-score
CC(=O)NC1[C@@H](O)OC(CO)[C@@H](O)[C@H]1O[C@H](C)C(=O)O (stereo in doubt) [Muramic acid, N-acetyl] | 1.128 | 
C[C@@H]1[C@H](O)[C@@H](C)/C=C/C=C/C=C/C=C/C=C/C=C/C=C/[C@H](O[C@@H]2O[C@H](C)[C@@H](O)[C@H](N)[C@@H]2O)C[C@@H]2O[C@](O)(C[C@@H](O)C[C@@H](O)[C@H](O)CC[C@@H](O)C[C@@H](O)CC(=O)O[C@H]1C)C[C@H](O)[C@H]2C(=O)O [Amphotericin B] | 0.5223 | 
O=C(O)CNC(=O)C(CS)Cc1ccccc1 (stereo not drawn) [Thiorphan] | 1.245 | 
NCC(CC(=O)O)c1ccc(Cl)cc1 (racemic) [Baclofen (R,S)] | 0.07861 | 
COc1ccc(NS(=O)(=O)c2ccc(N)cc2)nn1 [Sulfamethoxypyridazine] | −0.0234 | 
Nc1ccccc1S(N)(=O)=O [2-Aminobenzenesulfonamide] | −1.9389 | 
CCC[C@@H]1C[C@@H](C(=O)N[C@@H]([C@H]2O[C@H](SC)[C@H](O)[C@@H](O)[C@H]2O)[C@@H](C)O)N(C)C1 [Lincomycin hydrochloride] | 0.696 | 
Bromocryptine mesylate | −0.775 | 
CN(C)CCC=C1c2ccccc2CCc2ccccc21.Cl [Amitryptiline hydrochloride] | 0.6781 | 
C[C@]12CCC(=O)C=C1CC[C@@H]1[C@@H]2[C@@H](O)C[C@@]2(C)[C@H]1CC[C@]2(O)C(=O)CO [Hydrocortisone base] | −0.2176 | 
CC(C)(C)C(=O)OCOC(=O)[C@@H]1N2C(=O)[C@@H](NC(=O)[C@H](N)c3ccccc3)[C@H]2SC1(C)C [Pivampicillin] | −1.1929 | 
CCN(CCCCOC(=O)c1ccc(OC)c(OC)c1)C(C)Cc1ccc(OC)cc1 (stereo not drawn) [Mebeverine hydrochloride] | 0.1096 | 
N=C(N)NC(=O)Cc1c(Cl)cccc1Cl [Guanfacine hydrochloride] | −0.0783 | 
CCCCOc1ccc(C(=O)CCN2CCCCC2)cc1 [Dyclonine hydrochloride] | −1.4276 | 
CC(C(=O)O)c1cccc(C(=O)c2ccccc2)c1 (stereo not drawn) [Ketoprofen] | −0.219 | 
CCN[C@@H]1C[C@H](N)[C@@H](O[C@H]2OC(CN)=CC[C@H]2N)[C@H](O)[C@H]1O[C@H]1OC[C@](C)(O)[C@H](NC)[C@H]1O.CCN[C@@H]1C[C@H](N)[C@@H](O[C@H]2OC(CN)=CC[C@H]2N)[C@H](O)[C@H]1O[C@H]1OC[C@](C)(O)[C@H](NC)[C@H]1O.O=S(=O)(O)O.O=S(=O)(O)O.O=S(=O)(O)O.O=S(=O)(O)O.O=S(=O)(O)O [Netilmicin sulfate] | 1.062 | 
CCCCN(CCCC)CCCOC(=O)c1ccc(N)cc1 [Butacaine] | −0.9284 | 
O=c1cc(-c2ccccc2)oc2cc(O)cc(O)c12 [Chrysin] | −0.7142 | 
CN(C)CCCSC(=N)N [Dimaprit dihydrochloride] | −1.2574 | 
O=c1ccc2cc(O[C@@H]3O[C@H](CO)[C@@H](O)[C@H](O)[C@H]3O)c(O)cc2o1 [Esculin Hydrate] | −1.2808 | 
O=C(CCCN1CCC(O)(c2ccc(Br)cc2)CC1)c1ccc(F)cc1 [Bromperidol] | −0.6428 | 
O=C(O)/C=C/c1ccc(Cn2ccnc2)cc1 [Ozagrel hydrochloride] | −0.6787 | 

Compound | Z-score [1] | Z-score
C=C1c2cccc(O)c2C(=O)C2=C(O)[C@]3(O)C(=O)C(C(N)=O)=C(O)[C@@H](N(C)C)[C@@H]3[C@@H](O)[C@H]12 [Methacycline hydrochloride] | 2.309 | 
COc1ccccc1OCC(O)CO (stereo not drawn) [Guaifenesin] | 0.144 | 
CNC(=O)c1c(I)c(C(=O)NCC(=O)Nc2c(I)c(C(=O)O)c(I)c(C(=O)NCCO)c2I)c(I)c(N(C)C(C)=O)c1I [Ioxaglic acid] | −0.54 | 
CNc1ncnc2c1ncn2[C@@H]1O[C@H](CO)[C@@H](O)[C@H]1O [N6-methyladenosine] | −0.5287 | 
Cc1cccc(C)c1NC(=O)C(C)N (stereo not drawn) [Tocainide hydrochloride] | 0.6038 | 
C[C@]12C[C@H](O)[C@H]3[C@@H](CCC4=CC(=O)CC[C@@]43C)[C@@H]1CC[C@@H]2C(=O)CO [Corticosterone] | −1.2709 | 
CCN1C[C@]2(COC)CC[C@H](O)[C@@]34C5C[C@@H]6[C@@H](OC)C[C@](O)(C(CC23)C14)C5[C@H]6OC(C)=O (stereo partly drawn) [Condelphine] | 0.3143 | 
O=C1C=C2C=C[C@@H]3C[C@@]2(O1)[C@H]1CCCCN31 [Securinine] | −0.5036 | 
CN1[C@@H]2CC[C@H]1C[C@@H](OC(=O)[C@H](CO)c1ccccc1)C2 [Hyoscyamine (L)] | 1.204 | 
CC(=O)O[C@H]1C[C@@]2(C)[C@@H](C[C@@H](O)[C@H]3[C@@]4(C)CC[C@@H](O)[C@@H](C)[C@@H]4CC[C@@]32C)/C1=C(\CCC=C(C)C)C(=O)O [Fusidic acid sodium salt] | 0.9973 | 
O=C(c1ccc(OCCN2CCCCC2)cc1)c1c(-c2ccc(O)cc2)sc2cc(O)ccc12 [Raloxifene hydrochloride] | −0.8574 | 
CC1=C(C(=O)O)N2C(=O)[C@@H](NC(=O)[C@H](N)c3ccccc3)[C@H]2SC1 [Cephalexin monohydrate] | −1.1486 | 
CN(C)C(=O)C(CCN1CCC(O)(c2ccc(Cl)cc2)CC1)(c1ccccc1)c1ccccc1 [Loperamide hydrochloride] | −0.1814 | 
CC(C)(C)CC(C)(C)c1ccc(OCCOCC[N+](C)(C)Cc2ccccc2)cc1 [Benzethonium chloride] |  | 8.105
CN(C)[C@@H]1C(O)=C(C(N)=O)C(=O)[C@@]2(O)C(O)=C3C(=O)c4c(O)cccc4[C@@](C)(O)[C@H]3C[C@@H]12 [Tetracycline hydrochloride] | −0.2579 | 
C[C@@H]1C/C=C/C=C/C=C/C=C/[C@H](O[C@@H]2O[C@H](C)[C@@H](O)[C@H](N)[C@@H]2O)C[C@@H]2O[C@](O)(C[C@@H](O)C[C@H]3O[C@@H]3/C=C/C(=O)O1)C[C@H](O)[C@H]2C(=O)O [Natamycin] | 0.06039 | 
COP(=O)(OC)C(O)C(Cl)(Cl)Cl (stereo not drawn) [Trichlorfon] | 0.2655 | 
CN1CCN(C2=Nc3ccccc3Oc3ccc(Cl)cc32)CC1 [Loxapine succinate] | −0.6976 | 
C#C[C@]1(O)CC[C@H]2[C@@H]3CCC4=C(CCC(=O)C4)[C@H]3CC[C@@]21C [Norethynodrel] | −0.7872 | 
C=CCN1CC[C@]23c4c5ccc(O)c4O[C@H]2C(=O)CC[C@@]3(O)[C@H]1C5 [Naloxone hydrochloride] | −0.3899 | 
C=CC[N@@+]12CC[C@@]34c5ccccc5N5/C=C6/[C@H]7C[C@H]8[C@@]9(CC[N@@+]8(CC=C)C/C7=C/CO)c7ccccc7N(/C=C(/[C@@H](C[C@@H]31)/C(=C\CO)C2)[C@H]54)[C@@H]69.[Cl-].[Cl-] [Alcuronium chloride] | 0.354 | 
C=C(NC(=O)C(=C)NC(=O)c1csc(C2=N[C@@H]3c4csc(n4)[C@H]4NC(=O)c5csc(n5)[C@H]([C@](C)(O)[C@@H](C)O)NC(=O)[C@H]5CSC(=N5)/C(=C/C)NC(=O)[C@H]([C@@H](C)O)NC(=O)c5csc(n5)[C@]3(CC2)NC(=O)[C@H](C)NC(=O)C(=C)NC(=O)[C@H](C)NC(=O)[C@H]([C@@H](C)CC)N[C@@H]2C=Cc3c([C@H](C)O)cc(nc3[C@H]2O)C(=O)O[C@@H]4C)n1)C(N)=O [Thiostrepton] | 13.9158 | 
